The values that follow come from ChEMBL document CHEMBL3102773, “The synthesis and comparative receptor binding affinities of novel, isomeric pyridoindolobenzazepine scaffolds” (Bioorg Med Chem Lett, 2014).

SMILES strings stand for the structures. Several values for one entry are separate records, joined by “and”; a condition that tells them apart may be missing. Identical values can stand only once. Counter-ions that a name gives are not always drawn. Some results are limits rather than exact numbers.

Among the targets are D(3) dopamine receptor (Homo sapiens, UniProt P35462); D(1B) dopamine receptor (Homo sapiens, UniProt P21918); Histamine H2 receptor (Homo sapiens, UniProt P25021); Histamine H1 receptor (Homo sapiens, UniProt P35367).
Assay [1] concerns the target 5-hydroxytryptamine receptor 2B (Homo sapiens, UniProt P41595).
Description: Displacement of [3H]LSD from 5-HT2B receptor (unknown origin)
The target in assay [2] is Sodium-dependent dopamine transporter (Homo sapiens, UniProt Q01959). Description: Binding affinity to dopamine transporter (unknown origin) by radioligand displacement assay. In general terms: Displacement assays read how much labelled ligand stays bound in the presence of the test substance.
Sequence of Sodium-dependent dopamine transporter (Q01959 whole entry): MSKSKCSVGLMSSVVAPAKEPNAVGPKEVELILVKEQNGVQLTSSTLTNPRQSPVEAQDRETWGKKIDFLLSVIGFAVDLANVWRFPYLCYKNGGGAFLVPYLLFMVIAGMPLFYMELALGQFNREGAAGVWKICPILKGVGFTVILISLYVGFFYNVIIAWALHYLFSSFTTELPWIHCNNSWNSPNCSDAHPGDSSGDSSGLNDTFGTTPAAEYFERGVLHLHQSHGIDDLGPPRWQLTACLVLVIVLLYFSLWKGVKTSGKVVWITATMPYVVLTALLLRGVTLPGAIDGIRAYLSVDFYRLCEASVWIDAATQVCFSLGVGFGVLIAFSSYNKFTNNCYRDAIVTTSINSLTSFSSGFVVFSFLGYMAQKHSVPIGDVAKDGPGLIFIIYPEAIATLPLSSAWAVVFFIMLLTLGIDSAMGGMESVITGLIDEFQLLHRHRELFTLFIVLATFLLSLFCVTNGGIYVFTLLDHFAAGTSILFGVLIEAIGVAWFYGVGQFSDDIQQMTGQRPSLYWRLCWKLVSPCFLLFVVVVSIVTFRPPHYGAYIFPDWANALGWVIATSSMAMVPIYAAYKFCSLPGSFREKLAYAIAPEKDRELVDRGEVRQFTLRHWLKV
The target in the next assay is T1, D(4) dopamine receptor (Homo sapiens, UniProt P21917).
T1 sequence (P21917 whole entry): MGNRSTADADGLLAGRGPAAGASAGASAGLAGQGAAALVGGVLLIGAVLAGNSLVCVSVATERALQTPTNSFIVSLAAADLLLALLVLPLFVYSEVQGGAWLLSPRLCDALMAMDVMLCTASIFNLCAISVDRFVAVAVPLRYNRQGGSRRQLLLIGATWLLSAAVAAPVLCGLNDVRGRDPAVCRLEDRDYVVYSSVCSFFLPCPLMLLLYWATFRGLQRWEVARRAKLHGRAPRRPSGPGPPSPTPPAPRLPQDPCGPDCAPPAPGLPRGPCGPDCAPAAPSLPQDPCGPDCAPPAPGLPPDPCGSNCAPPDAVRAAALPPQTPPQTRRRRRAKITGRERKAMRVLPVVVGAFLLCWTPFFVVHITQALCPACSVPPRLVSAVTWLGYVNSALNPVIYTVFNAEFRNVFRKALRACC

Assay [3] concerns the target T2, Muscarinic acetylcholine receptor M4 (Homo sapiens, UniProt P08173).
T2 sequence (P08173 whole entry): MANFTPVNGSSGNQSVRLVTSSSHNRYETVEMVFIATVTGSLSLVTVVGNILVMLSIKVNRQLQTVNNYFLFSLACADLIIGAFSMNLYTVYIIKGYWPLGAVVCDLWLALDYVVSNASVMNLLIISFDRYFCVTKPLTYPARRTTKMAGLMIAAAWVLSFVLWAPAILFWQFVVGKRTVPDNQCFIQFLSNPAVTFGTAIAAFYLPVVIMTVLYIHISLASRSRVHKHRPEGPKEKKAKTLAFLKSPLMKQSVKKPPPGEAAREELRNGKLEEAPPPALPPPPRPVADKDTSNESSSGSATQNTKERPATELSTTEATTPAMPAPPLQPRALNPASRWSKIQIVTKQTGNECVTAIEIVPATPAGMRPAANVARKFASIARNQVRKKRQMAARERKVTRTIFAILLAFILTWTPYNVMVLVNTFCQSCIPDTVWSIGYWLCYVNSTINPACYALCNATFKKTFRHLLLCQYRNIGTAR
As to the kind of experiment: Binding affinity to muscarinic M4 receptor (unknown origin) by radioligand displacement assay.

The target of assay [4] is T3, Muscarinic acetylcholine receptor M2 (Homo sapiens, UniProt P08172).
T3 sequence (P08172 whole entry): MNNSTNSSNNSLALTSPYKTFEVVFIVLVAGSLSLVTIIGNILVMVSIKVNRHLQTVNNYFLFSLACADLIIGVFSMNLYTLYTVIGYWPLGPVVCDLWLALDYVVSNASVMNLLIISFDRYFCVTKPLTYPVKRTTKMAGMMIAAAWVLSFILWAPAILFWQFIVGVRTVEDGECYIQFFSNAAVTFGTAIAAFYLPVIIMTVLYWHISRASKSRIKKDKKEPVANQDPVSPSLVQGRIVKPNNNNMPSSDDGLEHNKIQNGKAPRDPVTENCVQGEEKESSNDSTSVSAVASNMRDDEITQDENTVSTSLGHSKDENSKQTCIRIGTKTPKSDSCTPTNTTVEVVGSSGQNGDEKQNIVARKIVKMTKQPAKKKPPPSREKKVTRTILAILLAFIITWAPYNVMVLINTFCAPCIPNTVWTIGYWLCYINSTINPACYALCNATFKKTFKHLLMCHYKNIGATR
As to the kind of experiment: Binding affinity to muscarinic M2 receptor (unknown origin) by radioligand displacement assay.

The target in the next assay is Mu-type opioid receptor (Homo sapiens, UniProt P35372). Description: Binding affinity to mu opioid receptor (unknown origin) by radioligand displacement assay.
Sequence of Mu-type opioid receptor (P35372 whole entry): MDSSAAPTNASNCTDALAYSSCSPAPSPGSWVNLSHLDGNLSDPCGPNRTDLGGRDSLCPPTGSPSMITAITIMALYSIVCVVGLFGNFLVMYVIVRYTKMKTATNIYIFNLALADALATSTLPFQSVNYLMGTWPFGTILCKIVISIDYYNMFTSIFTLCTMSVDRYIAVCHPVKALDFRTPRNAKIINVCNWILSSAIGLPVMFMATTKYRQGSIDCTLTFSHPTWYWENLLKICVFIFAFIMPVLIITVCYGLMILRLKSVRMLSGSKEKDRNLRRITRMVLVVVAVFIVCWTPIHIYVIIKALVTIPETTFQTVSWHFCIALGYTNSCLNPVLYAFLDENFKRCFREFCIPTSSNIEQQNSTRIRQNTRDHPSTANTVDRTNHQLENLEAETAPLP
In assay [5] the target is Beta-1 adrenergic receptor (Homo sapiens, UniProt P08588). As to the kind of experiment: Binding affinity to adrenergic beta1 receptor (unknown origin) by radioligand displacement assay.
Sequence of Beta-1 adrenergic receptor (P08588 whole entry): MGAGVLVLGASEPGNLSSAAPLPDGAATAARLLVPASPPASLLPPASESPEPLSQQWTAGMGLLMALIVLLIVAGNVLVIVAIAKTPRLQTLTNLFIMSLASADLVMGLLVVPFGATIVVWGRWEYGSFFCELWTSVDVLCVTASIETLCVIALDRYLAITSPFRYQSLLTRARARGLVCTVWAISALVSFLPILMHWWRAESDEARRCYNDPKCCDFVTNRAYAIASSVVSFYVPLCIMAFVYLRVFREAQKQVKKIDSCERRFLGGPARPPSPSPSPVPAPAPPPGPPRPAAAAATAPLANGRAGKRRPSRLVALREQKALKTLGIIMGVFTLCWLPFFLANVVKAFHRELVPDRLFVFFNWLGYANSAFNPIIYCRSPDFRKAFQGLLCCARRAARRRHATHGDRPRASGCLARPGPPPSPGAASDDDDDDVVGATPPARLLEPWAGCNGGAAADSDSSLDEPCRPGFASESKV
Assay [6] deals with Delta-type opioid receptor (Homo sapiens, UniProt P41143). Description: Binding affinity to delta opioid receptor (unknown origin) by radioligand displacement assay.
Sequence of Delta-type opioid receptor (P41143 whole entry): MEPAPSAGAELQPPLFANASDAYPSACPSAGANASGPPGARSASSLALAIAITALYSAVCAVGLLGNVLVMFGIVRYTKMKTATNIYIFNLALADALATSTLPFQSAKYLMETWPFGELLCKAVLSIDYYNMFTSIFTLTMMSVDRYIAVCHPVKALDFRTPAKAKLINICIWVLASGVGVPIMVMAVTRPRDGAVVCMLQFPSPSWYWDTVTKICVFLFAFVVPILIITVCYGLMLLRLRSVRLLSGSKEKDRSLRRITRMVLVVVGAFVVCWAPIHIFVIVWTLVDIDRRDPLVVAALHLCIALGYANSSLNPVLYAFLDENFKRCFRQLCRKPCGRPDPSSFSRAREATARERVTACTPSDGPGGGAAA
Assay [7] has as its target Beta-2 adrenergic receptor (Homo sapiens, UniProt P07550). Description: Binding affinity to adrenergic beta2 receptor (unknown origin) by radioligand displacement assay.
Assay [8] deals with Beta-3 adrenergic receptor (Homo sapiens, UniProt P13945). As to the kind of experiment: Binding affinity to adrenergic beta3 receptor (unknown origin) by radioligand displacement assay.
Sequence of Beta-3 adrenergic receptor (P13945 whole entry): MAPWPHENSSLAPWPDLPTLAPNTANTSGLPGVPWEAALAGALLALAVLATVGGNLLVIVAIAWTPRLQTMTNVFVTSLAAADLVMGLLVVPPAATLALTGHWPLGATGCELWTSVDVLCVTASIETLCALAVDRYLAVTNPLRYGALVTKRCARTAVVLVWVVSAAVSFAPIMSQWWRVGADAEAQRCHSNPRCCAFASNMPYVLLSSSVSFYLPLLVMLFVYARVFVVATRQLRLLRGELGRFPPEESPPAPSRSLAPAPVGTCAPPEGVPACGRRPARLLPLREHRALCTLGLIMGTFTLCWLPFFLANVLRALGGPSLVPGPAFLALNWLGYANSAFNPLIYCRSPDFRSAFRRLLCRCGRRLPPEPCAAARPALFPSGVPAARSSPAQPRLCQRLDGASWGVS
Assay [9] deals with Sodium-dependent noradrenaline transporter (Homo sapiens, UniProt P23975). As to the kind of experiment: Displacement of [3H]Nisoxetine from norepinephrine transporter (unknown origin).
Sequence of Sodium-dependent noradrenaline transporter (P23975 whole entry): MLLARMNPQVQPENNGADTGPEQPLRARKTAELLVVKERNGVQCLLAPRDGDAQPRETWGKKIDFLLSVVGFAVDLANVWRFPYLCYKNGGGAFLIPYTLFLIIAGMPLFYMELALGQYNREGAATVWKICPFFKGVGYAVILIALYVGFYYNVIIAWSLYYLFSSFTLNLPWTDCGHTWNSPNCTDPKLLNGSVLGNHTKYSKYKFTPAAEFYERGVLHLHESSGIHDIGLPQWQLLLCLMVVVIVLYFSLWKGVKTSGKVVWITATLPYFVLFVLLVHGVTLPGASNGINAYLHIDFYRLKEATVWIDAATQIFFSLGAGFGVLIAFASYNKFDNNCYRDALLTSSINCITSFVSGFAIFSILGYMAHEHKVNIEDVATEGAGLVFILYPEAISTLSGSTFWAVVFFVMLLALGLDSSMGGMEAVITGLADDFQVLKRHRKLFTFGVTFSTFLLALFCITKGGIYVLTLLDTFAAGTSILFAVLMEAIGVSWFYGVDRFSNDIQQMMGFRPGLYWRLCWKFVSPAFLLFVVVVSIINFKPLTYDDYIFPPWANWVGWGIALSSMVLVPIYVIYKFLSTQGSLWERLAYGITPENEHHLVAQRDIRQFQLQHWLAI
Another assay has as its target D(1A) dopamine receptor (Homo sapiens, UniProt P21728). As to the kind of experiment: Binding affinity to dopamine D1 receptor (unknown origin) by radioligand displacement assay.
The target in assay [10] is T4, 5-hydroxytryptamine receptor 3A (Homo sapiens, UniProt P46098).
T4 sequence (P46098 whole entry): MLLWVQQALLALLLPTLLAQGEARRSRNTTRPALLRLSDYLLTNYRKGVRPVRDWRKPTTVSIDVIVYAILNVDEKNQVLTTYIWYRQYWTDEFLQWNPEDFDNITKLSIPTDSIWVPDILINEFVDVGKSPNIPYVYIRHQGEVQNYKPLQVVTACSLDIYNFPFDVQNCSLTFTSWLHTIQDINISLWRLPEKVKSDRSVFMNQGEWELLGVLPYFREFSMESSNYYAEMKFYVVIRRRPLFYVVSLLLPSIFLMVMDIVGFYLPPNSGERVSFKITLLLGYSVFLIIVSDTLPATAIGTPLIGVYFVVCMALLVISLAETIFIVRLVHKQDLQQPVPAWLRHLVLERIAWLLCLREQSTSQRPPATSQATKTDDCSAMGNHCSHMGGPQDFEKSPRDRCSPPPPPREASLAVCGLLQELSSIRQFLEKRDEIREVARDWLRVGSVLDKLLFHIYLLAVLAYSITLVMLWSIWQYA
Description: Displacement of [3H]GR65630 from 5-HT3 receptor (unknown origin)

Another assay addresses Histamine H3 receptor (Homo sapiens, UniProt Q9Y5N1). As to the kind of experiment: Binding affinity to histamine H3 receptor (unknown origin) by radioligand displacement assay.
In assay [11] the target is Sigma non-opioid intracellular receptor 1 (Homo sapiens, UniProt Q99720). Description: Displacement of [3H](+)Pentazocine from sigma 1 receptor (unknown origin).
Assay [12] has as its target Muscarinic acetylcholine receptor M1 (Homo sapiens, UniProt P11229).
Description: Displacement of [3H]QNB from muscarinic M1 receptor (unknown origin)
Assay [13] has as its target Alpha-1D adrenergic receptor (Homo sapiens, UniProt P25100).
Assay [14] deals with 5-hydroxytryptamine receptor 2C (Homo sapiens, UniProt P28335).
Description: Displacement of [3H]Mesulergine from 5-HT2C receptor (unknown origin)
Assay [15] addresses 5-hydroxytryptamine receptor 1E (Homo sapiens, UniProt P28566).
Description: Displacement of [3H]5HT from 5-HT1E receptor (unknown origin)
The target of another assay is D(2) dopamine receptor (Homo sapiens, UniProt P14416). Description: Displacement of [3H]N-Methylspiperone from dopamine D2 receptor (unknown origin).
Assay [16] has as its target Alpha-1B adrenergic receptor (Homo sapiens, UniProt P35368).
Description: Displacement of [125I]HEAT from adrenergic alpha1B receptor (unknown origin)
Assay [17] concerns the target Alpha-1A adrenergic receptor (Homo sapiens, UniProt P35348).
For assay [18], the target named is Muscarinic acetylcholine receptor M3 (Homo sapiens, UniProt P20309).
Description: Displacement of [3H]QNB from muscarinic M3 receptor (unknown origin)
In assay [19] the target is Sodium-dependent serotonin transporter (Homo sapiens, UniProt P31645).
Assay [20] concerns the target Muscarinic acetylcholine receptor M5 (Homo sapiens, UniProt P08912).
Description: Displacement of [3H]QNB from muscarinic M5 receptor (unknown origin)
The target in assay [21] is 5-hydroxytryptamine receptor 5A (Homo sapiens, UniProt P47898).
Description: Displacement of [3H]LSD from 5-HT5A receptor (unknown origin)
Assay [22] has as its target Kappa-type opioid receptor (Homo sapiens, UniProt P41145). As to the kind of experiment: Displacement of [3H]U69593 from kappa opioid receptor (unknown origin).
Assay [23] deals with Alpha-2C adrenergic receptor (Homo sapiens, UniProt P18825).
Description: Displacement of [125I]Clonidine from adrenergic alpha2C receptor (unknown origin)
Assay [24] deals with 5-hydroxytryptamine receptor 6 (Homo sapiens, UniProt P50406).
Description: Displacement of [3H]LSD from 5-HT6 receptor (unknown origin)
Assay [25] deals with 5-hydroxytryptamine receptor 2A (Homo sapiens, UniProt P28223).
Description: Displacement of [3H]Ketanserin from 5-HT2A receptor (unknown origin)
For assay [26], the target named is 5-hydroxytryptamine receptor 7 (Homo sapiens, UniProt P34969).
Description: Displacement of [3H]LSD from 5-HT7 receptor (unknown origin)
In assay [27] the target is Alpha-2B adrenergic receptor (Homo sapiens, UniProt P18089).
Description: Displacement of [125I]Clonidine from adrenergic alpha2B receptor (unknown origin)
Assay [28] addresses 5-hydroxytryptamine receptor 1B (Homo sapiens, UniProt P28222).
Description: Displacement of [3H]5-CT from 5-HT1B receptor (unknown origin)
Assay [29] addresses 5-hydroxytryptamine receptor 1A (Homo sapiens, UniProt P08908). As to the kind of experiment: Displacement of [3H]WAY100635 from 5-HT1A receptor (unknown origin).
The target of assay [30] is 5-hydroxytryptamine receptor 1D (Homo sapiens, UniProt P28221). As to the kind of experiment: Displacement of [3H]5-CT from 5-HT1D receptor (unknown origin).
Assay [31] deals with Alpha-2A adrenergic receptor (Homo sapiens, UniProt P08913).
Description: Displacement of [125I]Clonidine from adrenergic alpha2A receptor (unknown origin)

Sequence of Beta-2 adrenergic receptor (P07550 whole entry): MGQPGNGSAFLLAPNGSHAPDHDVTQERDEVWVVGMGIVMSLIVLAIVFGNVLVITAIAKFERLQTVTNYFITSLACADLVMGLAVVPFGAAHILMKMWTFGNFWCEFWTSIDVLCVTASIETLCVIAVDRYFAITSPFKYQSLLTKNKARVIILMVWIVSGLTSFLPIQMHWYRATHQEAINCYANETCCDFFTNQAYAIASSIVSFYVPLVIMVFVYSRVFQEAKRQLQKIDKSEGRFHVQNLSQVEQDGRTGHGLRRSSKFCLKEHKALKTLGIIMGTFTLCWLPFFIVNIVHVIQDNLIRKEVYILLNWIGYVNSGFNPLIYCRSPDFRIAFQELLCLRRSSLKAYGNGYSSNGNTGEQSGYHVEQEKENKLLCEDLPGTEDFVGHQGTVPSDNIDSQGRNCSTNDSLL
Sequence of Histamine H3 receptor (Q9Y5N1 whole entry): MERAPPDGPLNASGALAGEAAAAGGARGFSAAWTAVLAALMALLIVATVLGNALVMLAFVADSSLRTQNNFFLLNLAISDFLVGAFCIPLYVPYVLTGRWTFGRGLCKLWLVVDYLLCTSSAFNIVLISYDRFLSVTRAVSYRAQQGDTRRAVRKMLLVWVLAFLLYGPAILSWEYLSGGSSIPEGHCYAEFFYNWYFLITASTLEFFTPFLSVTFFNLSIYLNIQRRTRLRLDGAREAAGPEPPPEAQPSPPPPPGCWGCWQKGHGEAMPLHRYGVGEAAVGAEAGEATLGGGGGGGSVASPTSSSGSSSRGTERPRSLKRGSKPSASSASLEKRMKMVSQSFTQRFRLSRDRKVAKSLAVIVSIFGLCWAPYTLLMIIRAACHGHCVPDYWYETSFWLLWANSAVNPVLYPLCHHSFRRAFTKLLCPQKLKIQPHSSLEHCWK
Sequence of D(1A) dopamine receptor (P21728 whole entry): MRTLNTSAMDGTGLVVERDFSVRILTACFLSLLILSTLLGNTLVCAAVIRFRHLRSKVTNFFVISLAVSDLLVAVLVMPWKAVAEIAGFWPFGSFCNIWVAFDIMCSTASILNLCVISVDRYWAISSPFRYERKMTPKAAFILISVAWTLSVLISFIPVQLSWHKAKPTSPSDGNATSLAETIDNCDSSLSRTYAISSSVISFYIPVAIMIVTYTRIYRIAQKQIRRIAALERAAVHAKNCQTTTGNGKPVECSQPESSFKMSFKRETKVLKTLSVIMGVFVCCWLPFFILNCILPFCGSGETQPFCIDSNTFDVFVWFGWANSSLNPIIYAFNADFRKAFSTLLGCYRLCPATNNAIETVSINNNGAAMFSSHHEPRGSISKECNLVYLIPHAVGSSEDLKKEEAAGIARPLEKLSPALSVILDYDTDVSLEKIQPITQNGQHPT
Sequence of Histamine H2 receptor (P25021 whole entry): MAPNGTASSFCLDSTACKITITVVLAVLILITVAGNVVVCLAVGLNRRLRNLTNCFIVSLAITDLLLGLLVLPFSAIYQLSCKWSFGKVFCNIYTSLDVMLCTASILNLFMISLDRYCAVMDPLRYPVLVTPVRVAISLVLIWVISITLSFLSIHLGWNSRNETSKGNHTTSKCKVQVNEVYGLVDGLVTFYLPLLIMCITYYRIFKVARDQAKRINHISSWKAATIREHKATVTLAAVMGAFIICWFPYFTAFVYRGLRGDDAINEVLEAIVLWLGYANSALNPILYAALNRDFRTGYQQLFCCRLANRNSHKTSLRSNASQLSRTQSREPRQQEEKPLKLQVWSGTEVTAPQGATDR
Sequence of Kappa-type opioid receptor (P41145 whole entry): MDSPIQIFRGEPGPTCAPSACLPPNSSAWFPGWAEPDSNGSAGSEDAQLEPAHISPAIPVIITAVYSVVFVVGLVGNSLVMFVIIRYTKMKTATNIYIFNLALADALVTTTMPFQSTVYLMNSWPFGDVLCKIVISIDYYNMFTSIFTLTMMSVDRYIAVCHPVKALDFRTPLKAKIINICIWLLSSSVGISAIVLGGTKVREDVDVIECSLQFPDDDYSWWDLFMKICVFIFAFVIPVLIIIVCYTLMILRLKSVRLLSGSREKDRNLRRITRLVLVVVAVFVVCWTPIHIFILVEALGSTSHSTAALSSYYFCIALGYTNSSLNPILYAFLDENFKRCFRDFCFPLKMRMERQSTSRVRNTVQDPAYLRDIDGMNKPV
Description for D(1B) dopamine receptor: Displacement of [3H]SCH23390 from dopamine D5 receptor (unknown origin)
Description for D(3) dopamine receptor: Displacement of [3H]N-Methylspiperone from dopamine D3 receptor (unknown origin)
Description for D(4) dopamine receptor: Displacement of [3H]N-Methylspiperone from dopamine D4 receptor (unknown origin)
Description for Histamine H1 receptor: Displacement of [3H]Pyrilamine from histamine H1 receptor (unknown origin)

Compound `Cn1ccc2cc3c(cc21)CCN3C(=O)Nc1cccnc1` registered a Ki in assay [1] of 0.012 µM.
As to `CN1CCc2c(c3cccc4c3n2-c2ccccc2CC4)C1`, the Ki (in assay [2]; on D(3) dopamine receptor; on D(4) dopamine receptor; in [3]; in [4]; on Mu-type opioid receptor) was greater than 10 µM in each case. Also, the Ki (in assay [5]; in assay [6]; in [7]; in assay [8]; in assay [9] (read-out: pKi (converted)); at D(1A) dopamine receptor) was greater than 10 µM throughout. The Ki (in assay [10]; at Histamine H3 receptor) was greater than 10 µM in each case.
Turning to `CN1CCc2c(c3cccc4c3n2Cc2ccccc2C4)C1`, the Ki (in assay [11] (read-out: pKi (converted)); in assay [12]; in assay [2]; on D(4) dopamine receptor; in assay [13] (read-out: pKi (converted)); in [14]) was greater than 10 µM in each case. Also, the Ki (in assay [15]; in assay [3]; on D(2) dopamine receptor; in [4]; in assay [16]; on Mu-type opioid receptor) was greater than 10 µM in each case. Moreover, the Ki in assay [17] (read-out: pKi (converted)), in assay [5], in assay [6], in assay [18], in [19] (read-out: pKi (converted)) and in assay [7] was greater than 10 µM each time. Also, the Ki was greater than 10 µM in assay [8]; 1.35 µM in assay [9] (read-out: Ki); greater than 10 µM on D(1B) dopamine receptor; greater than 10 µM in assay [20]; greater than 10 µM on D(1A) dopamine receptor; greater than 10 µM in [21]. Besides, the Ki (in assay [10]; on Histamine H3 receptor; in [22]; on Histamine H2 receptor) was greater than 10 µM throughout.
On to `CN1CCc2c(c3cccc4c3n2CCc2ccccc2-4)C1`, for which the Ki in [11] (read-out: Ki) was 0.22 µM; in [12] it was greater than 10 µM; in assay [2] it was greater than 10 µM; on D(3) dopamine receptor it was greater than 10 µM; at D(4) dopamine receptor, 1.38 µM and 1.23 µM; in assay [13] (read-out: Ki), 0.293 µM. Further, the Ki was 0.446 µM in assay [23]; greater than 10 µM in [14]; greater than 10 µM in [24]; greater than 10 µM in assay [15]; greater than 10 µM in assay [3]; greater than 10 µM on D(2) dopamine receptor. The Ki in assay [4] is greater than 10 µM; in [16], 2.24 µM; in assay [25], 0.257 µM; in assay [1], 0.104 µM; at Mu-type opioid receptor it was greater than 10 µM; in assay [26], 0.195 µM. For the same compound, the Ki in assay [27] was 4.35 µM; in [17] (read-out: Ki), 0.286 µM; in assay [28], 1.22 µM; in [5], greater than 10 µM; in [6] it was greater than 10 µM; in assay [29], greater than 10 µM. In addition, the Ki in assay [18] was greater than 10 µM; in assay [30], 0.625 µM; in assay [19] (read-out: Ki), 0.413 µM; in [7], greater than 10 µM; in assay [8], greater than 10 µM; in [9] (read-out: Ki), 1.95 µM. For the same compound, the Ki at Histamine H1 receptor is greater than 10 µM; in assay [31] it was 0.407 µM; at D(1B) dopamine receptor it was greater than 10 µM; in [20], greater than 10 µM; on D(1A) dopamine receptor it was greater than 10 µM; in assay [21], greater than 10 µM. For the same compound, the Ki in assay [10] is 0.529 µM; on Histamine H3 receptor it was greater than 10 µM; in [22], greater than 10 µM; at Histamine H2 receptor, 0.943 µM.
On Histamine H2 receptor, `CN1CC2c3ccccc3Oc3ccc(Cl)cc3C2C1` (centres undefined) [ASENAPINE MALEATE] returned a Ki of 0.0057 µM.
